Experimental data from patent publication US8426148B2, “Label-free methods using a resonant waveguide grating biosensor to determine GPCR signaling pathways” (Corning Incorporated, priority 2007, dated 2013).
Where two headings read alike, the source gives them in different places.

Tests used:
adenylate cyclase [1] = experiment: RWG biosensor DMR assay: NECA pretreatment, then forskolin-induced response; type: cell-based, Human; details: quiescent A431 cells; NECA pretreatment 1 h, then 1 μM forskolin; read-out: IC50 of NECA pretreatment against the forskolin-induced response
Protocol: (§1) The plate lid was handled automatically by the robotics.
Similarly, pretreatment of A431 cells with various concentrations of NECA for 1 h desensitizes adenylate cyclase and attenuates the forskolin-induced responses (FIG. 3B). […] Although not limited by theory a possible mechanism of cross-talk between these two pathways is that upon activation of adenylate cyclase by forskolin, cAMP is produced and activates PKA. PKA in turn may phosphorylate the Gs receptors, and cause complete inhibition of the Gs-mediated response. Accordingly, FIGS. 3A and 3B, respectively, illustrate: 3A) forskolin pretreatment on the NECA-induced Gs response; and 3B) of the effects NECA pretreatment on forskolin-induced responses in quiescent A431 cells.

H1 histamine receptor = experiment: RWG biosensor DMR assay: forskolin pretreatment, then histamine-induced Gq response; type: cell-based, Human; details: quiescent A431 cells; forskolin pretreatment 1 h, then 100 nM histamine; read-out: IC50 of forskolin pretreatment, partial inhibition of histamine-induced response
Protocol: (§2) Cell culture—Human epidermoid carcinoma A431 cells (American Type Cell Culture) were grown in Dulbecco's modified Eagle's medium (DMEM) supplemented with 10% fetal bovine serum (FBS), 4.5 g/liter glucose, 2 mM glutamine, and antibiotics. About 1.8×10^4 cells at passage 3 to 8 suspended in 50 μL of the DMEM medium containing 10% FBS were placed in each well of a 384-well microplate, and were cultured at 37° C. under air/5% CO2 for about 1 day, followed by about 20 hr starvation through continuously culturing in the serum-free DMEM.
(§3) Optical biosensor system and cell assays—CORNING® EPIC® wavelength interrogation system was used. […] Once stable temperature is reached (typically within 1 hr), a sensor microplate is transferred by the robotics into the plate holder directly above the detection system, while a source plate is moved to an appropriate compartment so that it is readily addressable by the on-board liquid handling unit. […]
(§4) For kinetic assays, the cells were washed with HBSS (Hanks Balanced Salt Solution with 20 mM HEPES) buffer. After 1 hour incubation within the detection system, the sensor plate was scanned and a baseline response was recorded. Then, compound solutions were transferred into the sensor plate using the on-board liquid handling system, and the cell responses were then recorded for another period of time. […]

adenylate cyclase [2] = details: read-out: IC50 of histamine pretreatment against the forskolin response, quiescent A431 cells, then 1 μM forskolin, slight inhibition
Protocol: as §2, §3, §4

[3] = tested on: histamine receptor subtype 1; experiment: RWG biosensor DMR assay: U73122 pretreatment, then histamine-induced DMR signal; type: cell-based, Human; details: quiescent A431 cells
Description: as §1
Histamine is a natural agonist for endogenously expressed Gq-coupled receptor histamine receptor subtype 1 in A431 cells.

Work on `CCNC(=O)[C@H]1O[C@@H](n2cnc3c(N)ncnc32)[C@H](O)[C@@H]1O` [NECA, N-ethyladenosine-5′-uronic acid] yielded an IC50 (adenylate cyclase [1]) of 0.0013 µM.

With `C=C[C@@]1(C)CC(=O)[C@]2(O)[C@@]3(C)[C@@H](O)CCC(C)(C)[C@@H]3[C@H](O)[C@H](OC(C)=O)[C@@]2(C)O1` [forskolin, Forskolin] the IC50 (H1 histamine receptor) was ~0.184 µM.

In the case of `NCCc1c[nH]cn1` [histamine, Histamine], the IC50 (adenylate cyclase [2]) is reported as 0.301 µM.

For `COc1ccc2c(c1)CC[C@@H]1[C@@H]2CC[C@]2(C)[C@@H](NCCCCCCN3C(=O)C=CC3=O)CC[C@@H]12` [U73122, 1-[6-[[17β-3-methoxyestra-1,3,5(10)-trien-17-yl]amino]hexyl]-1H-pyrrole-2,5-dione], the “effect of U73122 pretreatment on histamine-induced DMR response” value ([3]; U73122 0-228 μM, then 1,000 nM histamine) was “dose-dependent inhibition of the histamine-induced DMR response” and the “effect of U73122 at high doses on histamine response (P-DMR amplitude)” value ([3]; high doses of U73122, 1,000 nM histamine) was “completely inhibit the histamine response”.
